ChEMBL document CHEMBL3885881, “DrugMatrix”

Species: Rattus norvegicus
Test: DrugMatrix - Regimen: Daily Repeat
Type: toxicity, organism-based, Sprague-Dawley
Parameters: regimen Daily Repeat, gender Male, age 6-8 weeks
Details: in vivo, iv, […], vehicle 100 % SALINE; for ALANINE AMINOTRANSFERASE / ALBUMIN / ALKALINE PHOSPHATASE / ASPARTATE AMINOTRANSFERASE / BLOOD UREA NITROGEN / CARBON DIOXIDE / CHLORIDE / CHOLESTEROL / CREATINE PHOSPHOKINASE / CREATININE / GLUCOSE / LACTATE DEHYDROGENASE / LIPASE / PHOSPHORUS / POTASSIUM / SODIUM / TOTAL BILIRUBIN / TOTAL PROTEIN / URIC ACID: tissue Plasma; for ABSOLUTE BASOPHIL / ABSOLUTE EOSINOPHIL / ABSOLUTE LYMPHOCYTE / ABSOLUTE MONOCYTE / ABSOLUTE SEGMENTED NEUTROPHIL / BASOPHIL / EOSINOPHIL / ERYTHROCYTE COUNT / HEMATOCRIT / HEMOGLOBIN / LEUKOCYTE COUNT / LYMPHOCYTE / MEAN CORPUSCULAR HEMOGLOBIN / MEAN CORPUSCULAR HEMOGLOBIN CONCENTRATION / MEAN CORPUSCULAR VOLUME / MONOCYTE / NEUTROPHIL / NUCLEATED RED BLOOD CELLS / PLATELET COUNT: tissue Blood
[1] = 72 h, dose 0.15 mg/Kg, dose level Low, time 3 day
[2] = 72 h, dose 1.5 mg/Kg, dose level High, time 3 day
[3] = 120 h, dose 0.15 mg/Kg, dose level Low, time 5 day
[4] = 120 h, dose 1.5 mg/Kg, dose level High, time 5 day

CCC1=C[C@@H]2CN(C1)Cc1c([nH]c3ccccc13)[C@@](C(=O)OC)(c1cc3c(cc1OC)N(C)[C@H]1[C@@](O)(C(=O)OC)[C@H](OC(C)=O)[C@]4(CC)C=CCN5CC[C@]31[C@@H]54)C2 [VINORELBINE]
ALANINE AMINOTRANSFERASE [1]: 59 u/L | ALBUMIN [1]: 4.53 G/DL | ALKALINE PHOSPHATASE [1]: 404 u/L | ASPARTATE AMINOTRANSFERASE [1]: 88.67 u/L | BLOOD UREA NITROGEN [1]: 17.33 mg/dL | CARBON DIOXIDE [1]: 27.33 mmol/L | CHLORIDE [1]: 101 MEQ/L | CHOLESTEROL [1]: 68.67 mg/dL | CREATINE PHOSPHOKINASE [1]: 237.67 u/L | CREATININE [1]: 0.23 mg/dL | GLUCOSE [1]: 167.33 mg/dL | LACTATE DEHYDROGENASE [1]: 308.67 u/L | LIPASE [1]: 9.67 u/L | PHOSPHORUS [1]: 13.7 mg/dL | POTASSIUM [1]: 6.88 MEQ/L | SODIUM [1]: 145.07 MEQ/L | TOTAL BILIRUBIN [1]: 0.23 mg/dL | TOTAL PROTEIN [1]: 6.33 G/DL | URIC ACID [1]: 2.1 mg/dL | ALANINE AMINOTRANSFERASE [2]: 45.33 u/L | ALBUMIN [2]: 4.47 G/DL | ALKALINE PHOSPHATASE [2]: 359.33 u/L | ASPARTATE AMINOTRANSFERASE [2]: 137.33 u/L | BLOOD UREA NITROGEN [2]: 20.67 mg/dL | CARBON DIOXIDE [2]: 24 mmol/L | CHLORIDE [2]: 103 MEQ/L | CHOLESTEROL [2]: 72.67 mg/dL | CREATINE PHOSPHOKINASE [2]: 671.33 u/L | CREATININE [2]: 0.17 mg/dL | GLUCOSE [2]: 185.67 mg/dL | LACTATE DEHYDROGENASE [2]: 160.33 u/L | LIPASE [2]: 10 u/L | PHOSPHORUS [2]: 13 mg/dL | POTASSIUM [2]: 5.92 MEQ/L | SODIUM [2]: 146 MEQ/L | TOTAL BILIRUBIN [2]: 0.1 mg/dL | TOTAL PROTEIN [2]: 6.2 G/DL | URIC ACID [2]: 2.37 mg/dL | ABSOLUTE BASOPHIL [3]: 0 CELLS/uL | ABSOLUTE EOSINOPHIL [3]: 49 CELLS/uL | ABSOLUTE LYMPHOCYTE [3]: 14282 CELLS/uL | ABSOLUTE MONOCYTE [3]: 49 CELLS/uL | ABSOLUTE SEGMENTED NEUTROPHIL [3]: 2420 CELLS/uL | BASOPHIL [3]: 0% | EOSINOPHIL [3]: 0.33% | ERYTHROCYTE COUNT [3]: 5.78 x10E6/uL | HEMATOCRIT [3]: 36.1% | HEMOGLOBIN [3]: 14.13 G/DL | LEUKOCYTE COUNT [3]: 16.8 x10E3/uL | LYMPHOCYTE [3]: 84.67% | MEAN CORPUSCULAR HEMOGLOBIN [3]: 24.47 pg | MEAN CORPUSCULAR HEMOGLOBIN CONCENTRATION [3]: 39.2 G/DL | MEAN CORPUSCULAR VOLUME [3]: 62.5 fL | MONOCYTE [3]: 0.33% | NEUTROPHIL [3]: 14.67% | NUCLEATED RED BLOOD CELLS [3]: 0 /100WBC | PLATELET COUNT [3]: 1168.33 x10E3/uL | ABSOLUTE BASOPHIL [4]: 0 CELLS/uL | ABSOLUTE EOSINOPHIL [4]: 0 CELLS/uL | ABSOLUTE LYMPHOCYTE [4]: 6817.33 CELLS/uL | ABSOLUTE MONOCYTE [4]: 24.67 CELLS/uL | ABSOLUTE SEGMENTED NEUTROPHIL [4]: 24.67 CELLS/uL | BASOPHIL [4]: 0% | EOSINOPHIL [4]: 0% | ERYTHROCYTE COUNT [4]: 5.47 x10E6/uL | HEMATOCRIT [4]: 31.93% | HEMOGLOBIN [4]: 12.93 G/DL | LEUKOCYTE COUNT [4]: 6.87 x10E3/uL | LYMPHOCYTE [4]: 99.33% | MEAN CORPUSCULAR HEMOGLOBIN [4]: 23.67 pg | MEAN CORPUSCULAR HEMOGLOBIN CONCENTRATION [4]: 40.5 G/DL | MEAN CORPUSCULAR VOLUME [4]: 58.4 fL | MONOCYTE [4]: 0.33% | NEUTROPHIL [4]: 0.33% | NUCLEATED RED BLOOD CELLS [4]: 0 /100WBC | PLATELET COUNT [4]: 359 x10E3/uL | ALANINE AMINOTRANSFERASE [3]: 48.33 u/L | ALBUMIN [3]: 4.33 G/DL | ALKALINE PHOSPHATASE [3]: 436.67 u/L | ASPARTATE AMINOTRANSFERASE [3]: 85 u/L | BLOOD UREA NITROGEN [3]: 16.67 mg/dL | CARBON DIOXIDE [3]: 27 mmol/L | CHLORIDE [3]: 100.67 MEQ/L | CHOLESTEROL [3]: 65.33 mg/dL | CREATINE PHOSPHOKINASE [3]: 245 u/L | CREATININE [3]: 0.2 mg/dL | GLUCOSE [3]: 166.33 mg/dL | LACTATE DEHYDROGENASE [3]: 152 u/L | LIPASE [3]: 9.33 u/L | PHOSPHORUS [3]: 12.43 mg/dL | POTASSIUM [3]: 7.02 MEQ/L | SODIUM [3]: 145.37 MEQ/L | TOTAL BILIRUBIN [3]: 0.2 mg/dL | TOTAL PROTEIN [3]: 6.27 G/DL | URIC ACID [3]: 2.07 mg/dL | ALANINE AMINOTRANSFERASE [4]: 58.67 u/L | ALBUMIN [4]: 4.23 G/DL | ALKALINE PHOSPHATASE [4]: 367.67 u/L | ASPARTATE AMINOTRANSFERASE [4]: 138.67 u/L | BLOOD UREA NITROGEN [4]: 15 mg/dL | CARBON DIOXIDE [4]: 31.33 mmol/L | CHLORIDE [4]: 100 MEQ/L | CHOLESTEROL [4]: 75 mg/dL | CREATINE PHOSPHOKINASE [4]: 193 u/L | CREATININE [4]: 0.19 mg/dL | GLUCOSE [4]: 143.67 mg/dL | LACTATE DEHYDROGENASE [4]: 98 u/L | LIPASE [4]: 9 u/L | PHOSPHORUS [4]: 10.6 mg/dL | POTASSIUM [4]: 6.34 MEQ/L | SODIUM [4]: 146.4 MEQ/L | TOTAL BILIRUBIN [4]: 0.2 mg/dL | TOTAL PROTEIN [4]: 6.13 G/DL | URIC ACID [4]: 0.9 mg/dL
